# Paper PMC12787000 (Molecules, 2025)
# How the values were obtained:
# A375R cells [1] = assay: Cell cycle distribution (PI, flow cytometry), A375R; format: cell-based; details: 25 µM, 72 h
# Protocol: (§1) A375 and A375R cells were seeded in 6-well plates at a density of 150,000 cells per well. On the following day, the cells were treated with 25 µM concentrations of compounds 1, 3, and 8, as well as telmisartan. After 72 h of incubation, the cells were harvested using trypsin, washed with phosphate-buffered saline (PBS), fixed in ethanol, and stored at −20 °C until analysis. Ethanol-fixed cells were treated with RNase A (1 mg/mL) and stained with propidium iodide (PI; 400 µg/mL). A total of 20,000 events were recorded per sample. Quantitative analysis of the cell cycle phase distribution was performed by flow cytometry using a FACSCalibur flow cytometer (Becton Dickinson, San Jose, CA, USA) and BD CellQuest Pro Version 5.2.1 software. Experiment was performed three times. Cells under treatment were compared to controls for each cell phase separately with one-way ANOVA and Dunnett’s multiple comparison tests. p < 0.05 was considered statistically significant.
# [2] = system: MRC-5 (fetal fibroblasts); assay: MTT cell viability assay, MRC-5; format: cell-based; details: Homo sapiens, MRC5; MRC-5, MTT, 72 h
# Protocol: (§2) A375, MRC-5, and HaCaT cell lines were obtained from the American Type Culture Collection (ATCC). 518A2 cell line was kindly provided by Dr. […]ć. All cell lines were cultured in RPMI 1640 medium supplemented with 2 g/L glucose, 10% fetal bovine serum (FBS), and antibiotics. […] Cell viability was assessed using the MTT assay (Sigma Aldrich, #M5655). […] After 72 h of incubation, absorbance was measured at 570 nm using a Multiskan SkyHigh microplate reader (Thermo Fisher Scientific, Helsinki, Finland). Values were corrected by subtracting the absorbance measured in wells containing cell-free medium with tested compounds.
# A375 cells [3] = assay: Cellular uptake and subcellular distribution by LC-MS/MS; format: cell-based; details: A375, 25 μM, 24 h; for Compound accumulation normalized to telmisartan, Chromatin Bound: chromatin-bound nuclear fraction; for Compound accumulation normalized to telmisartan, Cytoplasm: cytoplasmic fraction; for Compound accumulation normalized to telmisartan, Cytoskeleton: cytoskeletal fraction; for Compound cell accumulation normalized to telmisartan, Whole Lysate: μmol compound per μg cell protein normalized to telmisartan
# Protocol: Cells were then trypsinized, washed with PBS and pelleted. For whole cell lysates, cell pellet was dissolved in RIPA buffer on ice. Fractions and whole cell lysates were stored at -80 °C until use. Protein concentration of lysates was determined with Pierce BCA Protein assay kit (Thermo Fisher #23225), and cell accumulation was calculated as μmol of compound per μg of cell protein and normalized to telmisartan. Concentrations of telmisartan and its derivatives were determined using liquid chromatography-tandem mass spectrometry (LC-MS/MS) method in positive HESI mode. The analysis was performed on UHPLC chromatograph […] (Thermo Fisher Scientific Inc., Madison, WI, USA), coupled to a triple quadrupole mass spectrometer TSQ Quantum Access MAX (Thermo Fisher Scientific Inc., Madison, WI, USA) with heated electrospray ionization (HESI) interface. The column was Zorbax Extend C18 (150 mm × 4.6 mm, 5 μm particle size). […] Experiment was repeated twice.
# A375 cells [4] = assay: Mitochondrial morphology staining (MitoTracker Green FM); format: cell-based; details: A375, 25 μM, 24 h
# Protocol: For imaging of the mitochondrial morphology in live cells, A375 cells seeded in 96-well optical bottom plates, as above, were treated for 24 h with 25 μM telmisartan, compound 1, 3, or 8. Treatment was washed away, and cells were stained with 500 nM MitoTracker Green FM (#9074, Cell signaling Technology, Danvers, MA, USA) in RPMI without serum for 30 min at 37 °C. Cells were imaged on Zeiss PALM MicroBeam Axio Observer Z1 microscope (Carl Zeiss MicroImaging GmbH, Oberkochen, Germany) with Zeiss LD Plan-Neofluar 20×/0.4 Korr, ∞/0–1.5 mm lens and AxioVision software. Mitochondrial shape was quantified in images from two biological experimental repeats, in three random fields for each condition, using Image J Analyze Particles function. Images were first processed to 8-bit binary, and circularity and aspect ratio (major axis/minor axis) were calculated and plotted with Prism 9 (GraphPad Software, LLC, Boston, MA, USA). Treatments were compared with untreated control using one-way ANOVA and Dunnett’s multiple comparisons test. p < 0.05 was considered statistically significant.
# A375 cells [5] = assay: MTT cell viability assay, A375; format: cell-based; details: 72 h; for IC50: Homo sapiens, A-375, A375, MTT
# Protocol: as §2
# AT1R = target: T1, AT1R (Homo sapiens, UniProt P30556); assay: Angiotensin II-induced Ca2+ release, Fluo-4 AM live-cell imaging; format: cell-based; details: 2 min; for Effect on AngII-induced Ca2+ increase (combination treatment): A375, 25 μM compound + 1 μM AngII
# T1 construct: endogenous in cells; host or cells: A375 melanoma cells (ATCC)
# T1 sequence (P30556 1-359): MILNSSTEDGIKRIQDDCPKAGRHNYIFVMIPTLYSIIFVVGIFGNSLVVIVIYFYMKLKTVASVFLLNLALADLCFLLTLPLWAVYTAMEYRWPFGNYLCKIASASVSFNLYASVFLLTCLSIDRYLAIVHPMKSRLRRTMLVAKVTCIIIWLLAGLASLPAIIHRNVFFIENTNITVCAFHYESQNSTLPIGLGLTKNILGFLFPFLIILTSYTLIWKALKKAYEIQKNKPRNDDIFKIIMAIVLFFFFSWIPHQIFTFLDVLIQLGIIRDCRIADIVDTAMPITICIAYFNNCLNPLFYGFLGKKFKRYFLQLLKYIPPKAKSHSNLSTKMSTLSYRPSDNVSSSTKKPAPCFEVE
# Protocol: Fluo-4 AM calcium indicator dye (F14201, Molecular Probes, Eugene, OR, USA) was used to observe Ca^2+ dynamics upon treatment, per manufacturer’s instructions. Briefly, 5000 A375 cells/well were seeded in 96-well optical bottom black cell culture plates (165305, Thermo Scientific). Fluo-4 AM stock solution in DMSO was mixed with equal volume of 20% Pluronic F-127 to assist in dispersion of AM esters before dilution into the loading medium. Twenty-four hours after seeding medium was removed, and cells were washed with HBBS without calcium and magnesium. Cells were stained in HBSS medium with 1.25 μM Fluo-4-AM for 30 min at 37 °C. After incubation, cells were washed and incubated in complete medium (10%FBS RPMI) to allow de-esterification for 30 min and then treated with 1 μM human Angiotensin II (A9525, Sigma Aldrich), 50 μM telmisartan, compounds 1, 3, and 8, or the combinations. Images were taken before addition of the treatment (0 min) and after 2 min of treatment on Zeiss PALM MicroBeam Axio Observer Z1 microscope (Carl Zeiss MicroImaging GmbH, Oberkochen, Germany) with Zeiss LD Plan-Neofluar 20×/0.4 Korr, ∞/0–1.5 mm lens and AxioVision SE64 Rel.4.9.1 software. Experiment was repeated three times. Integrated density of Fluo-4 fluorescence at 2 min of exposure to treatment was calculated with Image J, and normalized to the baseline fluorescence at time 0, in at least two random fields for each condition. Conditions were compared with one-way ANOVA and Tukey’s multiple comparisons test. p < 0.05 was considered statistically significant.
# A375 cells [6] = assay: Cell cycle distribution (PI, flow cytometry), A375; format: cell-based; details: A375, 25 µM, 72 h
# Protocol: as §1
# [7] = system: HaCaT (human keratinocytes); assay: MTT cell viability assay, HaCaT; format: cell-based; details: 72 h
# Protocol: as §2
# A375R cells [8] = assay: MTT cell viability assay, vemurafenib-resistant A375R; format: cell-based; details: for IC50: A375R, MTT, 72 h
# Protocol: as §2
# 518A2 cells = assay: MTT cell viability assay, 518A2; format: cell-based; details: Homo sapiens; 518A2, MTT, 72 h
# Protocol: as §2
# A375 cells [9] = details: A375, 24 h, compared to untreated control
# Protocol: Changes in mitochondrial membrane potential were analyzed using the JC-1 Mitochondrial Membrane Potential Assay Kit (ab113850) according to the manufacturer’s instructions. […] After 24 h, cells were incubated with the JC-1 staining solution at 37 °C for 30 min in dark, washed with 1X Dilution Buffer, and analyzed by flow cytometry. […] The ratio of red J-aggregates to green JC-1 monomers was calculated to assess changes in mitochondrial membrane potential. Experiment was performed twice.
# [10] = design: method as in PMID 11014323; details: males, oral intake of 320 mg; cited from earlier work
smiles,measurement,setting,value
"CCCc1nc2c(C)cc(-c3nc4ccccc4n3C)cc2n1Cc1ccc(-c2ccccc2C(=O)NC(Cc2cn(C)c3ccccc23)C(=O)O)cc1 (stereo not drawn) [compound 1, 2-{[4′-(1,7′-dimethyl-2′-propyl-1H-[2,5′]bibenzoimidazolyl-3′-ylmethyl)-biphenyl-2-carbonyl]-amino}-3-(1-methyl-1H-indol-3-yl)-propionic acid]",Cell cycle distribution,A375R cells [1],cell accumulation in the G0/G1 phase
same,IC50,[2],26.7 ± 2.48 µM
same,"Compound accumulation normalized to telmisartan, Chromatin Bound",A375 cells [3],36.22
same,"Compound accumulation normalized to telmisartan, Cytoplasm",A375 cells [3],17.80
same,"Compound accumulation normalized to telmisartan, Cytoskeleton",A375 cells [3],21.14
same,"Compound accumulation normalized to telmisartan, Membrane",A375 cells [3]; membrane fraction,106.59
same,"Compound cell accumulation normalized to telmisartan, Whole Lysate",A375 cells [3],12.08
same,Mitochondrial network morphology,A375 cells [4],dramatic fission and clumping of mitochondria
same,Effect on cell viability at single concentration,"A375 cells [5]; A375, 25 μM, MTT",significant reductions in cell viability
same,IC50,A375 cells [5],27.2 ± 0.63 µM
same,Effect on AngII-induced Ca2+ increase (combination treatment),AT1R,did not prevent AngII-induced Ca^2+ increase
same,Effect of compound alone on baseline Ca2+ signaling,"AT1R; A375, compound alone",no significant changes in the baseline Ca^2+ signaling
same,Cell cycle distribution,A375 cells [6],"increased accumulation of cells in the subG1 phase, albeit not statistically significant"
same,IC50,[7],43.9 ± 3.42 µM
same,IC50,A375R cells [8],19.7 ± 8.87 µM
same,IC50,518A2 cells,23.5 ± 2.08 µM
"CCCc1nc2c(C)cc(-c3nc4ccccc4n3C)cc2n1Cc1ccc(-c2ccccc2C(=O)NC(C(=O)O)C(C)CC)cc1 (stereo not drawn) [compound 4, 2-{[4′-(1,7′-dimethyl-2′-propyl-1H-[2,5′]bibenzoimidazolyl-3′-ylmethyl)-biphenyl-2-carbonyl]-amino}-3-methyl-pentanoic acid]",IC50,A375 cells [5],43 ± 6.02 µM
same,IC50,518A2 cells,49 ± 3.17 µM
"CCCc1nc2c(C)cc(-c3nc4ccccc4n3C)cc2n1Cc1ccc(-c2ccccc2C(=O)NCC(=O)O)cc1 [compound 5, {[4′-(1,7′-dimethyl-2′-propyl-1H-[2,5′]bibenzoimidazolyl-3′-ylmethyl)-biphenyl-2-carbonyl]-amino}-acetic acid]",IC50,A375 cells [5],86.22 ± 0.64 µM
same,IC50,518A2 cells,81.5 ± 6.28 µM
"CCCc1nc2c(C)cc(-c3nc4ccccc4n3C)cc2n1Cc1ccc(-c2ccccc2C(=O)NC(Cc2cnc[nH]2)C(=O)O)cc1 (stereo not drawn) [compound 2, 2-{[4′-(1,7′-dimethyl-2′-propyl-1H-[2,5′]bibenzoimidazolyl-3′-ylmethyl)-biphenyl-2-carbonyl]-amino}-3-(3H-imidazol-4-yl)-propionic acid]",IC50,A375 cells [5],> 150 µM
same,IC50,518A2 cells,> 150 µM
"CCCc1nc2c(C)cc(-c3nc4ccccc4n3C)cc2n1Cc1ccc(-c2ccccc2C(=O)NC(CC(C)C)C(=O)O)cc1 (stereo not drawn) [compound 7, 2-{[4′-(1,7′-dimethyl-2′-propyl-1H-[2,5′]bibenzoimidazolyl-3′-ylmethyl)-biphenyl-2-carbonyl]-amino}-4-methyl-pentanoic acid]",IC50,A375 cells [5],43.2 ± 3.55 µM
same,IC50,518A2 cells,39.7 ± 2.4 µM
"CCCc1nc2c(C)cc(-c3nc4ccccc4n3C)cc2n1Cc1ccc(-c2ccccc2C(=O)NCCCC(=O)O)cc1 [compound 6, 4-{[4′-(1,7′-dimethyl-2′-propyl-1H-[2,5′]bibenzoimidazolyl-3′-ylmethyl)-biphenyl-2-carbonyl]-amino}-butyric acid]",IC50,A375 cells [5],116 ± 6.94 µM
same,IC50,518A2 cells,89.2 ± 7.37 µM
"N#CC(C#N)=NNc1ccc(OC(F)(F)F)cc1 [FCCP, carbonyl cyanide 4-(trifluoromethoxy) phenylhydrazone]",Ratio of red JC-1 aggregates to green JC-1 monomers,A375 cells [9],lowest red/green ratio
"CCCc1nc2c(C)cc(-c3nc4ccccc4n3C)cc2n1Cc1ccc(-c2ccccc2C(=O)O)cc1 [Telmisartan, reference compound]",Cell cycle distribution,A375R cells [1],cell cycle profile comparable to that of the untreated control cells
same,IC50,[2],70.4 ± 5.61 µM
same,"Compound accumulation normalized to telmisartan, Chromatin Bound",A375 cells [3],1.00
same,"Compound accumulation normalized to telmisartan, Cytoplasm",A375 cells [3],1.00
same,"Compound accumulation normalized to telmisartan, Cytoskeleton",A375 cells [3],1.00
same,Accumulation in the membrane fraction,A375 cells [3]; membrane fraction,0.197 µmol/L
same,"Compound accumulation normalized to telmisartan, Membrane",A375 cells [3]; membrane fraction,1.00
same,"Compound cell accumulation normalized to telmisartan, Whole Lysate",A375 cells [3],1.00
same,IC50,A375 cells [5],59.1 ± 4.17 µM
same,Effect on AngII-induced Ca2+ increase (combination treatment),AT1R,prevented AngII-induced Ca^2+ increase
same,IC50,[7],148 ± 2.89 µM
same,Maximum steady-state plasma level,[10],around 20 μM
same,Selectivity,"A375R cells [8]; A375R versus normal cell lines (HaCaT, MRC-5), from IC50 values",> 2.40
same,IC50,A375R cells [8],29.2 ± 3.88 µM
same,IC50,518A2 cells,70.2 ± 3.83 µM
